Source: patent publication US20040229785A1, “Screening methods to identify treatments for autoimmune disease” (priority 2002, published 2004)
Where “and” joins values, the source holds several entries; their conditions need not be identical. Equal entries are not always repeated.

Tests used:
[1] = system: B6 mouse splenocytes (T cells, non-T cells)
Protocol: (§12) Following is an optimized protocol for the automated analysis of cell sensitivity to compounds that induce cell death via apoptosis or necrosis.
(§13) Place on AutoMACS cell sorter for CD-subset separation (magnetic bead separation method or direct RBC lysis)
(§14) Pipette 100 μL cell suspension (25,000 cells) into each 96-well plate well, ×3 for triplicates
(§15) Add 5 μL of reagent (e.g., TNF-α, another induced or cell death, or mixtures containing up to 10 different chemical reagent combinations for the induction of cell death), to each well to be treated, ×3 for triplicates.
(§16) For flow cytometry (analysis), remove 90 μL of re-suspended sample material from each sample well
(§17) Add 90 μl of cell stain solution to each sample flow test tube above to stain cells for identification
(§18) The sensitivity of T cell populations from NOD mice were re-examined using the automated assay described above.
(§19) Non-T cells from NOD and B6 mice were also examined for sensitivity to TNF-α-induced cell death.

[2] = system: CD3+ T cells from a non-diabetic control subject; format: cell-based, human
From the text: (§1) II. Remove red blood cells and collect lymphocyte subsets:
(§2) 11. Acquire timed and/or absolute count/volume data
(§3) The automated method described herein has also been used for the assay of cell viability in a human patient. Blood samples were obtained from a patient with Type I diabetes and from a non-diabetic control subject. During the assay procedure, a CD3^+ T cell subset was isolated from each (Step 11.12 from the protocol). The cells were then contacted with TNF-α and cell viability was measured and compared to that found in control samples which were not contacted with TNF-α.

[3] = system: CD3+ T cells from a patient with Type I diabetes; format: cell-based, human
From the text: as §1, §2, §3

[4] = system: PBLs from Type I diabetics; experiment: Trypan Blue uptake by human PBLs incubated with TNF-α; format: cell-based; conditions: TNF-α 20 ng/mL, 24 hours, FIG. 14A
Protocol: (§4) In an initial set of assays for characterizing the response of PBLs from human diabetics and control subjects to incubation with TNF-α or other candidate compounds in vitro, uptake of the dye Trypan Blue, a relatively nonspecific measure of cell death, was used. […] However, there appeared to be an inverse correlation between the age-at-onset and the extent of the TNF-α induced-increase in Trypan Blue uptake by the PBLs (FIG. 14C).

[5] = system: PBLs from non-diabetic subjects; experiment: as above; format: cell-based; conditions: TNF-α 20 ng/mL, 24 hours, FIG. 14B
Protocol: as §4

[6] = system: PBLs from non-diabetic control subjects; experiment: FACS Annexin V binding/PI uptake in human PBLs cultured with or without TNF-α; format: cell-based
Protocol: (§5) Therefore, Annexin V binding/PI uptake measurements were used to measure specific cellular lineages in the human PBLs based on fluorescence activated cell scanning (FACS) analysis. PBLs were stained with anti-CD3, anti-Annexin V, and anti-PI antibodies immediately after isolation. After 12 or 24 hours in culture in the presence or absence of TNF-α, cells were analyzed by FACS for Annexin V/PI binding to defined lineages. Over the course of these studies several important differences emerged in the behavior of human PBLs compared to NOD splenocytes (Table 1). First, human PBL isolates contained a large amount of cell fragments and debris, both at baseline and after culture. This finding was not evident in the NOD splenocyte preparations. Comparing the responses of non-diabetic C57BL/6 murine splenocytes to non-diabetic humans PBLs, the viability of C57BL/6 splenocytes remained constant during a 24 hour period of culture in vitro, whereas a progressive increase in spontaneous cell death of human PBLs was regularly observed over this interval. […]
The results generated using CD3, CD19, and CD11b positive PBLs isolated from 33 Type I diabetics and from control subjects (see Table 1) support the following conclusions. […] After 12 hours, these cells were stained with Annexin V and PI and analyzed by FACS.

[7] = system: PBLs from Type I diabetics; experiment: as above; format: cell-based; design: increase in Annexin V binding to CD3+ PBLs in response to TNF-α: dose or concentration left out as unconfirmed
Protocol: Therefore, Annexin V binding/PI uptake measurements were used to measure specific cellular lineages in the human PBLs based on fluorescence activated cell scanning (FACS) analysis. PBLs were stained with anti-CD3, anti-Annexin V, and anti-PI antibodies immediately after isolation. After 12 or 24 hours in culture in the presence or absence of TNF-α, cells were analyzed by FACS for Annexin V/PI binding to defined lineages. Over the course of these studies several important differences emerged in the behavior of human PBLs compared to NOD splenocytes (Table 1). First, human PBL isolates contained a large amount of cell fragments and debris, both at baseline and after culture. This finding was not evident in the NOD splenocyte preparations. Comparing the responses of non-diabetic C57BL/6 murine splenocytes to non-diabetic humans PBLs, the viability of C57BL/6 splenocytes remained constant during a 24 hour period of culture in vitro, whereas a progressive increase in spontaneous cell death of human PBLs was regularly observed over this interval. This differential response of cell viability to culture in vitro may possibly reflect an intrinsic fragility of human PBLs and/or the greater rigors of cell isolation required for purification of human PBLs as compared with murine splenocytes. […] Another difference between PBLs from human Type I diabetics and NOD splenocytes is that the evolution of TNF-α-induced apoptosis in NOD splenocytes occurs with a predictable time course that is much more rapid than that seen in PBLs from Type I diabetics. […] By 24 hours, there was little further increase in the fraction of cells binding Annexin V. However, nuclear binding of PI to NOD splenocytes had increased substantially reflecting a further progression of the apoptotic program. By contrast, cell death in response to TNF-α in human CD3 positive-PBLs, when evident, evolved much more slowly. For example, increased Annexin V binding was rarely seen after 12 hours and at 24 hours, increased Annexin V uptake, when present, was generally not accompanied by increased PI uptake.
The results generated using CD3, CD19, and CD11b positive PBLs isolated from 33 Type I diabetics and from control subjects (see Table 1) support the following conclusions. […] In these studies, PBLs were processed in parallel from a Type I diabetic and an age/sex matched control non-diabetic subject. Immediately after isolation, the PBLs were incubated with Annexin V and propidium iodide and subjected to FACS analysis (left column of flow charts; “before incubation”). […] The cells were then incubated in the absence (center panels) or presence (right panels) of TNF-α (20 ng/mL). After 12 hours, these cells were stained with Annexin V and PI and analyzed by FACS.

[8] = system: NOD mouse splenocytes (T cells, non-T cells)
Protocol: as §12, §13, §14, §15, §16, §17, §18, §19

B6 (C57BL/6) splenocytes = experiment: Annexin V/PI flow cytometry of cultured splenocytes with and without TNF-α; format: cell-based, mouse
Protocol: (§6) Flow cytometry can be performed using a Facscalibur flow cytometer (BD Biosciences, San Jose, Calif.). Samples were incubated for 18-24 hours in the absence or presence of TNF-α (20-50 ng/mL), after which apoptotis can be determined by direct detection using FITC-conjugated annexin V and Propidium Iodide (PI) from R&D Systems (TACS Annexin V-FITC Apoptosis Detection Kit; Minneapolis, Minn.). Early apoptotic cells were defined as positive for annexin V only, whereas late apoptotic cells were defined as being positive for both PI and annexin V.
(§7) In order to obtain high viability for those assays using splenocytes, gentle treatment throughout the isolation procedure is important. Optimized results were obtained as follows: a mouse is sacrificed by cervical dislocation and the spleen removed via an abdominal incision. The spleen is then gently inflated with several mLs of RPMI/10% FBS using a 22 gauge needle. Any fluid leaking out of the spleen is collected as it contains splenocytes. A small opening is created on one end of the spleen and the splenic tissue expelled through this opening with a “scraping” motion using blunt tipped forceps. The resulting clumps of tissue are homogenized by repeated gentle pipetting. The crude splenocyte preparation is then filtered through a 40 micron mesh filter.
(§8) The spleen contains a variety of different immune cells. These can be distinguished further into T-cells (mostly CD4 and CD8) and non-T-cells (mostly B-cells and macrophages). Magnetic separation methods were used to sort the splenocytes into T-cell and non-T-cell fractions. For the isolation of T-cells, Miltenyi Biotec's Pan T magnetic bead cocktail were used. This cocktail contains antibodies against CD11b, CD45R, DX5, and Ter-119. As a result, all Non-T cells, i.e. B cells, NK cells, dendritic cells, macrophages, granulocytes, and erythroid cells; are depleted from the sample, leaving only T-cells. For the isolation of non-T-cells, a mixture of magnetic beads directed against CD90 and Ter-119 were used. This depletes all T-cells and erythroid cells, leaving only the non-T cells.
(§9) The difference in sensitivity between B6 and NOD splenocytes to TNF-α was then examined. B6 and NOD splenocytes were plated out in U-bottom shaped 96 well plates at a density of 25,000 cells per well in 100 μL of medium, with and without 50 ng/mL TNF-α added. The cells were cultured for 24 hrs, stained with Annexin V and PI, and analyzed by flow cytometry (FIG. 10).
(§10) After culture at 37° C. for 26 hours, the cell death of NOD vs. B6 T cells and NOD vs. B6 non T cells was quantified by AnnexinV and PI (FIG. 11). Late death is shown for cells obtained from a single NOD and a single B6 mouse.
(§11) Samples obtained from a single NOD and a single B6 mouse were also examined for cell death by PI staining alone (FIG. 12) after culturing at 32° C. for 18 hours.
as §5

NOD splenocytes = experiment: as above; format: cell-based, mouse; conditions: for TNF sensitivity of T cell subpopulation: FIG. 13
Protocol: as §6, §7, §8, §9, §10, §11, §5

Q: What does the source list for TNF-α?
A: viability of splenocytes treated with TNF-α [1]: 69.7%; viability change of non-T cells, TNF-α treated vs untreated ([1]; B6 mice non-T cells, n=12, FIG. 18B): 5.0%; change in splenocyte viability on TNF-α treatment (increase) ([1]; control B6 mice, n=17, T cell populations, FIG. 16): 1.0+/−0.5; Viability (%) [2]: 96%; Death (%) ([2]; Control subject, CD3+ cells, TNF-α +, without TNF-α 5): 4%; Total Cell Count ([2]; Control subject, CD3+ cells, TNF-α +, without TNF-α 2000): 2200; Viability (%) [3]: 93%; Death (%) ([3]; Type I diabetic, CD3+ cells, TNF-α +, without TNF-α 5): 7%; Total Cell Count ([3]; Type I diabetic, CD3+ cells, TNF-α +, without TNF-α 1900): 1900; extent of Trypan Blue uptake [4]: further increasing Trypan Blue uptake; extent of Trypan Blue uptake [5]: did not significantly alter; Annexin V staining after culture in the presence of TNF-α ([6]; PBLs of two parallel non-diabetic control subjects, TNF-α 20 ng/mL, 12 hours, without TNF-α 5.0 and 9.0%): 5.5% and 7.5%; After culture with THF-α (Mean % cell death ± SE) ([6]; human random controls, overnight early T-cell death, n printed 3): 8.02 ± 0.85%; staining by Annexin V+PI+ ([7]; PBLs from a diabetic patient vs matched control, TNF-α 20 ng/mL, 12 hours, FIGS. 15A, 15B): increased significantly and selectively; Annexin V staining after culture in the presence of TNF-α ([7]; PBLs of two Type I diabetic subjects (FIGS. 15A, 15B), TNF-α 20 ng/mL, 12 hours, without TNF-α 6.5% and 6.2%): 11.3% and 13.4%; increase in Annexin V binding to CD3+ PBLs in response to TNF-α ([7]; Type I diabetic vs non-diabetic PBLs, 24 hours, TNF-α): greater to a statistically significant extent; After culture with THF-α (Mean % cell death ± SE) ([7]; human IDDM patients, overnight early T-cell death, n=33 pairs): 8.73 ± 0.96%; change in splenocyte viability on TNF-α treatment (decrease) ([8]; NOD diabetic mice, n=17, T cell populations, FIG. 16): −2.7+/−0.9; viability change of non-T cells, TNF-α treated vs untreated ([8]; NOD mice non-T cells, n=12, FIG. 18B): 4.6%; cell death of T cells by PI staining alone on exposure to TNF-α (B6 (C57BL/6) splenocytes; B6 T cells, 32° C., 18 hours, single mouse, FIG. 12): do not exhibit TNF induced death; late cell death of T cells by AnnexinV and PI on exposure to TNF-α (B6 (C57BL/6) splenocytes; B6 T cells, 37° C., 26 hours, single mouse, FIG. 11): increased viability; After culture with THF-α (Mean % cell death ± SE) (B6 (C57BL/6) splenocytes; C57BL/6 mouse, overnight early T-cell death, n=7 pairs): 10.2 ± 2.5%; TNF sensitivity of T cell subpopulation (NOD splenocytes; NOD CD4+ T cells): not TNF sensitive; TNF sensitivity of T cell subpopulation (NOD splenocytes; NOD CD8+ T cells): greatest TNF sensitivity; cell death of T cells by PI staining alone on exposure to TNF-α (NOD splenocytes; NOD T cells, 32° C., 18 hours, single mouse, FIG. 12): death of a subpopulation of T cells; late cell death of T cells by AnnexinV and PI on exposure to TNF-α (NOD splenocytes; NOD T cells, 37° C., 26 hours, single mouse, FIG. 11): further accelerated; After culture with THF-α (Mean % cell death ± SE) (NOD splenocytes; NOD mouse, overnight early T-cell death, n=5 pairs): 32.9 ± 3.97%; Annexin V binding (NOD splenocytes; NOD splenocytes, 12-hour incubation with TNF-α): clear increase in Annexin V binding; sensitivity of splenocytes to TNF-α (viability, Annexin V/PI) (NOD splenocytes; NOD vs B6 control splenocytes, 50 ng/mL TNF-α, 24 hrs, 25,000 cells per well, FIG. 10): much more sensitive
